In publication PMC4435632, “Phase 1 study of ixazomib, an investigational proteasome inhibitor, in advanced non-hematologic malignancies” (Investigational New Drugs, 2015):

Key:
[1] = Ixazomib in tumor biopsies (LC/MS/MS); format: in vivo, human; details: TPEC, 1.76 mg/m^2; 10 evaluable patients
Description: Tumor biopsies were analyzed for the presence of ixazomib using a quantified LC/MS/MS methodology validated in xenograft models. Expression of ATF-3 was measured in the TPEC using an IHC staining assay developed and validated using preclinical and human primary tumor samples. For this assay, formalin-fixed, paraffin-embedded tumor biopsy samples were obtained pre- and post-treatment (at 4–24 h post-dosing on day 1 or day 4 of cycle 1). Six 5 μm sections from each tumor sample were then cut (10 μm apart) and stained with antibody to ATF-3 (Santa Cruz Biotechnology, Inc., sc-188, lot:K1908) on a Discovery XT autostainer (Ventana Medical Systems, Inc.). After staining, whole slides were scanned and analyzed to calculate the percentage ATF-3-positive area for each section using the Genie™ (Aperio® ePathology Solutions) pattern recognition tool. The ATF-3-positive area was measured within the tumor region using the Positive Pixel Count algorithm, and the percentage ATF-3-positive area/total tumor area was then calculated for each section.
Approximately 16 patients were planned to be enrolled to the TPEC to estimate ixazomib concentrations in tumors and target engagement as ATF-3 expression levels. […] This value was used to determine the minimum number of sections (n = 6) for pharmacodynamic analysis and the size of the fold change in ATF-3 that could be detected with 80 % power. […]

[2] = Plasma ixazomib pharmacokinetics (LC/MS/MS, noncompartmental); format: in vivo
Description: Blood samples for determination of plasma ixazomib concentrations for pharmacokinetic analysis (3 mL) and for measurement of whole blood 20S proteasome activity (1 mL) were collected at the following timepoints for all patients in the dose-escalation cohort and for the first 12 patients completing cycle 1 while receiving protocol-specified treatment at the MTD: pre-dose (within 1 h) on days 1, 4, 8, and 11 of cycle 1, and on day 1 of cycle 2; and on days 1 and 11, cycle 1, at 5, 15 and 30 min, and 1, 2, 4, 9, 24, 48, 96 (day 11 only), 120 (day 11 only), and 168 (day 11 only) h post-dose. A limited sampling schedule was employed for the remaining patients in the MTD expansion cohorts.
Plasma concentrations of ixazomib were measured using a good laboratory practice-validated liquid chromatography/tandem mass spectrometry (LC/MS/MS) assay with a lower limit of quantification of 0.5 ng/mL. Whole blood 20S proteasome activity (expressed as percent proteasome inhibition relative to baseline) was measured using an established fluorogenic assay, which evaluates the chymotrypsin-like activity of the β5 subunit of the 20S proteasome, the primary target of ixazomib. […]
All efficacy and safety data were summarized using descriptive statistics. Pharmacokinetic and pharmacodynamic parameters were calculated using noncompartmental methods (WinNonlin software v5.3).

[3] = tested on: advanced non-hematologic malignancies; assay: Disease response (RECIST 1.0 / modified PCWG2); format: in vivo, human
Source text: AEs were monitored throughout the study and were graded according to National Cancer Institute Common Terminology Criteria for Adverse Events (NCI-CTCAE) v3.0. Response assessments were undertaken by investigators using a consistent imaging modality in accordance with RECIST 1.0 [23] on days 18–21 of cycle 2 and subsequent cycles. For patients with prostate cancer, response and progressive disease were based on RECIST for measurable neoplastic disease or on measurement of serum PSA per modified PCWG2 criteria in the absence of measurable sites.
The safety population included all patients who received ≥1 dose of ixazomib, and the DLT-evaluable population, which was used for determination of the MTD, comprised patients who received all cycle 1 doses of ixazomib or experienced a DLT in cycle 1. […] The response-evaluable population included all patients who received ≥1 dose of ixazomib, had measurable disease at baseline, and had ≥1 post-baseline disease assessment. Approximately 16 response-evaluable patients were planned to be evaluated in each MTD expansion cohort.

CC(C)C[C@H](NC(=O)CNC(=O)c1cc(Cl)ccc1Cl)B(O)O [ixazomib]
Ixazomib in post-dose tumor biopsies [1]: present in all 10 post-dose biopsies analyzed
C0 (extrapolated immediate post-bolus plasma concentration) ([2]; day 1, 2.34 mg/m^2 IV, n = 1, individual value): 901 ng/mL
t½ (terminal disposition phase half-life) ([2]; day 11, 1.33 mg/m^2 IV, n = 3, geometric mean (% CV)): 145 (19) h
Decrease of mean plasma concentrations ([2]; human, in vivo, 8 h): approximately 90%
Accumulation of ixazomib ([2]; human, in vivo, 11 day of cycle 1): approximately 3 fold
half-life ([2]; human, in vivo, iv): 91.2 to 173 h
C0 ([2]; human, in vivo, iv, 0.125 mg/m2, C0 (extrapolated immediate post-bolus plasma concentration)): 27.1 ng/mL
AUC(0-t) ([2]; human, in vivo, iv, 0.25 mg/m2, AUC0–72): 60.9 ng·h/mL
C0 ([2]; human, in vivo, iv, 0.25 mg/m2, C0 (extrapolated immediate post-bolus plasma concentration)): 69 ng/mL
half-life ([2]; human, in vivo, iv, 1 mg/m2): 172 h
C0 ([2]; human, in vivo, iv, 1 mg/m2, C0 (extrapolated immediate post-bolus plasma concentration)): 273 ng/mL
C0 ([2]; human, in vivo, iv, 1.33 mg/m2, C0 (extrapolated immediate post-bolus plasma concentration)): 390 ng/mL
half-life ([2]; human, in vivo, iv, 1.76 mg/m2): 110 h
C0 ([2]; human, in vivo, iv, 1.76 mg/m2, C0 (extrapolated immediate post-bolus plasma concentration)): 556 ng/mL
half-life ([2]; human, in vivo, iv, 2.34 mg/m2): 90.8 h
C0 ([2]; human, in vivo, iv, 2.34 mg/m2, C0 (extrapolated immediate post-bolus plasma concentration)): 869 ng/mL
Plasma exposure versus dose ([2]; in vivo): appeared to increase proportionally with increasing ixazomib dose
Patients with stable disease ([3]; 92 response-evaluable patients): 30 patients
Patients with stable disease lasting for ≥4 cycles ([3]; 92 response-evaluable patients): eight
Patients with partial response ([3]; 92 response-evaluable patients, head and neck cancer, MTD 1.76 mg/m^2): one
Reduction in tumor diameter ([3]; one patient with kidney malignancy, progressive disease at end of study): 14%
Reduction in tumor diameter ([3]; other patient with kidney malignancy, discontinued due to grade 3 acute renal failure): 22%
Total duration of partial response ([3]; patient with head and neck cancer, achieved after 4 cycles, maintained for 8 cycles): 6.7 months
